“And” between values parts separate entries of the source, which are not always exact repeats. Equal values may be shown once. Toxic doses and inconclusive results are not listed.
Test system: P388 leukemia ip, CD2F1 mice, survival T/C
Assay: NCI In Vivo Anticancer Drug Screen. Data for tumor model P388 Leukemia (intraperitoneal) in CD2F1 (CDF1) mice
Settings: endpoint: median survival time, higher = longer survival
How it was run: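 Mice carrying the transplanted tumor received test compound or vehicle. Survival was recorded in each group, and the value is the treated-group measurement divided by that of the vehicle-treated control group.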

[1] = dose: 50.0 mg/kg/injection, schedule: Q01DX009 (ip), vehicle: Klucel (hydroxypropylcellulose) (HPC)
[2] = dose: 100.0 mg/kg/injection, schedule: Q01DX009 (ip), vehicle: Klucel (hydroxypropylcellulose) (HPC)
[3] = dose: 50.0 mg/kg/injection, schedule: Q01DX009 (ip), vehicle: saline with Tween-80
[4] = dose: 100.0 mg/kg/injection, schedule: Q01DX009 (ip), vehicle: saline with Tween-80
[5] = dose: 50.0 mg/kg/injection, schedule: Q01DX005 (ip), vehicle: saline with Tween-80
[6] = dose: 100.0 mg/kg/injection, schedule: Q01DX005 (ip), vehicle: saline with Tween-80
[7] = dose: 12.5 mg/kg/injection, schedule: Q01DX009 (ip), vehicle: saline
[8] = dose: 25.0 mg/kg/injection, schedule: Q01DX009 (ip), vehicle: saline
[9] = dose: 50.0 mg/kg/injection, schedule: Q01DX009 (ip), vehicle: saline
[10] = dose: 100.0 mg/kg/injection, schedule: Q01DX009 (ip), vehicle: saline
[11] = dose: 200.0 mg/kg/injection, schedule: Q01DX009 (ip), vehicle: saline
[12] = dose: 50.0 mg/kg/injection, schedule: Q01DX005 (ip), vehicle: Klucel (hydroxypropylcellulose) (HPC)
[13] = dose: 100.0 mg/kg/injection, schedule: Q01DX005 (ip), vehicle: Klucel (hydroxypropylcellulose) (HPC)
[14] = dose: 200.0 mg/kg/injection, schedule: Q01DX005 (ip), vehicle: Klucel (hydroxypropylcellulose) (HPC)
[15] = dose: 60.0 mg/kg/injection, schedule: Q01DX005 (ip), vehicle: saline with Tween-80
[16] = dose: 120.0 mg/kg/injection, schedule: Q01DX005 (ip), vehicle: saline with Tween-80
[17] = dose: 25.0 mg/kg/injection, schedule: Q01DX009 (ip), vehicle: Klucel (hydroxypropylcellulose) (HPC)
[18] = dose: 60.0 mg/kg/injection, schedule: Q01DX005 (ip), vehicle: Klucel (hydroxypropylcellulose) (HPC)
[19] = dose: 120.0 mg/kg/injection, schedule: Q01DX005 (ip), vehicle: Klucel (hydroxypropylcellulose) (HPC)
[20] = dose: 240.0 mg/kg/injection, schedule: Q01DX005 (ip), vehicle: Klucel (hydroxypropylcellulose) (HPC)
[21] = dose: 50.0 mg/kg/injection, schedule: Q01DX005 (ip), vehicle: saline
[22] = dose: 100.0 mg/kg/injection, schedule: Q01DX005 (ip), vehicle: saline
[23] = dose: 200.0 mg/kg/injection, schedule: Q01DX005 (ip), vehicle: saline

In the case of O=[N+]([O-])c1ccc(/C=C/C=C/c2ccc(S(=O)(=O)F)cc2)c(Cl)c1, the T/C [1] is reported as 93 % of control, the T/C [2] is reported as 93 % of control and the T/C (dose: 200.0 mg/kg/injection, schedule: Q01DX009 (ip), vehicle: Klucel (hydroxypropylcellulose) (HPC)) is reported as 97 % of control.
In the case of O=C(O)CCC(=O)N(CCP(c1ccccc1)c1ccccc1)CCP(c1ccccc1)c1ccccc1, the T/C [1] is reported as 111 % of control and the T/C [2] is reported as 112 % of control.
With Cc1noc(NS(=O)(=O)c2ccc(N=Nc3cc(N=Nc4ccc(S(=O)(=O)Nc5onc(C)c5C)cc4)c4c(NC(=O)C(Cl)Cl)cccc4c3OC(=O)C(Cl)Cl)cc2)c1C the T/C [3] was 94 % of control and the T/C [4] was 100 % of control.
CO/C(C)=C1/C(=O)O/C(=C/Nc2ccccc2)C1=O was tested, and the T/C [5] was 107 % of control, the T/C [6] was 107 % of control and the T/C (dose: 200.0 mg/kg/injection, schedule: Q01DX005 (ip), vehicle: saline with Tween-80) was 96 % of control.
For CC1(O)C=CP(C)(=O)C1 (stereo not drawn), the T/C [7] was 108 % of control, the T/C [8] was 110 % of control and the T/C [9] was 111 % of control. For the same compound, the T/C [10] was 100 % of control and the T/C [11] was 86 % of control.
For OC(Nc1nccs1)C(F)(F)F (stereo not drawn), the T/C [7] was 99 % of control, the T/C [8] was 100 % of control and the T/C [3] was 95 % of control. The T/C [9] was 101 % of control.
For O=C(c1ccccc1)C(C(c1ccccc1)N1CCOCC1)N1CCOCC1 (stereo not drawn), the T/C [4] was 94 % of control, the T/C (dose: 200.0 mg/kg/injection, schedule: Q01DX009 (ip), vehicle: saline with Tween-80) was 94 % of control and the T/C (dose: 400.0 mg/kg/injection, schedule: Q01DX009 (ip), vehicle: saline with Tween-80) was 94 % of control.
CC1CCC(n2cnc3c(Cl)ncnc32)O1 (stereo not drawn) was tested, and the T/C (dose: 25.0 mg/kg/injection, schedule: Q01DX005 (ip), vehicle: Klucel (hydroxypropylcellulose) (HPC)) was 97 % of control, the T/C [12] was 103 % of control and the T/C [13] was 110 % of control. For the same compound, the T/C [14] was 112 % of control and the T/C (dose: 400.0 mg/kg/injection, schedule: Q01DX005 (ip), vehicle: Klucel (hydroxypropylcellulose) (HPC)) was 114 % of control.
In the case of CCOC(=O)C(=O)Cc1nc2ccccc2nc1C, the T/C [15] is reported as 93 % of control and the T/C [16] is reported as 97 % of control.
With CC(=O)OC(CC=C(C)C)C1=CC(=O)c2c(O)ccc(O)c2C1=O (stereo not drawn) the T/C (dose: 6.25 mg/kg/injection, schedule: Q01DX005 (ip), vehicle: saline with Tween-80) was 109 % of control and the T/C (dose: 12.5 mg/kg/injection, schedule: Q01DX005 (ip), vehicle: saline with Tween-80) was 109 % of control.
For CC(=O)Nc1ccc(C(=O)N/N=C/c2ccccc2O)cc1, the T/C (dose: 6.25 mg/kg/injection, schedule: Q01DX009 (ip), vehicle: Klucel (hydroxypropylcellulose) (HPC)) was 90 % of control, the T/C (dose: 12.5 mg/kg/injection, schedule: Q01DX009 (ip), vehicle: Klucel (hydroxypropylcellulose) (HPC)) was 93 % of control and the T/C [17] was 88 % of control.
In the case of CC1N=C(SCC(=O)c2ccc(F)cc2)N2C(C)N=C(SCC(=O)c3ccc(F)cc3)N12 (stereo not drawn), the T/C [9] is reported as 111 % of control, the T/C [10] is reported as 111 % of control and the T/C [11] is reported as 98 % of control.
For COc1ccc(C2OC3=C(Nc4ccccc4N3)C2=O)cc1 (stereo not drawn), the T/C [18] was 97 % of control, the T/C [19] was 97 % of control and the T/C [20] was 98 % of control.
In the case of Cc1cc(C)nc(C2=C(O)c3ccccc3C2=O)c1, the T/C [18] is reported as 106 % of control, the T/C [19] is reported as 99 % of control and the T/C [20] is reported as 87 % of control and 96 % of control.
In the case of O=c1[nH]c(=O)n(C2CC(O)C(CO)O2)cc1N1CCOCC1 (stereo not drawn), the T/C [21] is reported as 108 % of control, the T/C [22] is reported as 101 % of control and the T/C [23] is reported as 108 % of control.
For CCCCCCCCCCCCSSSCCCCCCCCCCCC, the T/C [9] was 106 % of control, the T/C [10] was 97 % of control and the T/C [11] was 99 % of control and 87 % of control.
For O=C1c2cccc3c([N+](=O)[O-])ccc(c23)C(=O)N1CCCN1CCOCC1, the T/C [5] was 114 % of control and the T/C [6] was 116 % of control.
In the case of NC(=O)c1cc([N+](=O)[O-])ccc1N=NN(CCCl)Cc1ccccc1, the T/C (dose: 100.0 mg/kg/injection, schedule: Q04DX003 (ip), vehicle: Klucel (hydroxypropylcellulose) (HPC)) is reported as 111 % of control, the T/C (dose: 200.0 mg/kg/injection, schedule: Q04DX003 (ip), vehicle: Klucel (hydroxypropylcellulose) (HPC)) is reported as 122 % of control and the T/C (dose: 400.0 mg/kg/injection, schedule: Q04DX003 (ip), vehicle: Klucel (hydroxypropylcellulose) (HPC)) is reported as 162 % of control.
For C1=CCN(c2nc(N3CCOCC3)nc(N3CCCc4ccccc43)n2)CC1, the T/C [9] was 99 % of control, the T/C [10] was 97 % of control and the T/C [11] was 99 % of control.
For Cc1ccc(S(=O)(=O)CC2(Br)Cc3ccccc3C2=O)cc1 (stereo not drawn), the T/C (dose: 100.0 mg/kg/injection, schedule: Q04DX003 (ip), vehicle: saline) was 103 % of control, the T/C (dose: 200.0 mg/kg/injection, schedule: Q04DX003 (ip), vehicle: saline) was 100 % of control and the T/C (dose: 400.0 mg/kg/injection, schedule: Q04DX003 (ip), vehicle: saline) was 100 % of control.
With N=C(N)Sc1ccc([N+](=O)[O-])cc1Cl the T/C [12] was 104 % of control, the T/C [13] was 104 % of control and the T/C [14] was 101 % of control.
For O=C1C(=Cc2cccnc2)C(=O)c2ccccc21, the T/C [15] was 106 % of control and the T/C [16] was 111 % of control.
In the case of Nc1nnnn1CCCCO, the T/C [21] is reported as 104 % of control, the T/C [22] is reported as 103 % of control and the T/C [23] is reported as 111 % of control. The T/C (dose: 400.0 mg/kg/injection, schedule: Q01DX005 (ip), vehicle: saline) was 120 % of control.
In the case of CC1(C)OCC(C2OC(C)(C)OC2C2OC(O)C=CC2=O)O1 (stereo not drawn), the T/C (dose: 0.78 mg/kg/injection, schedule: Q01DX009 (ip), vehicle: distilled water + Tween-80) is reported as 108 % of control and 103 % of control, the T/C (dose: 1.56 mg/kg/injection, schedule: Q01DX009 (ip), vehicle: distilled water + Tween-80) is reported as 116 % of control and 103 % of control and the T/C (dose: 3.13 mg/kg/injection, schedule: Q01DX009 (ip), vehicle: distilled water + Tween-80) is reported as 100 % of control and 94 % of control. The T/C (dose: 6.25 mg/kg/injection, schedule: Q01DX009 (ip), vehicle: distilled water + Tween-80) was 100 % of control.
In the case of Nc1ccc2c(NCCCCCCNc3c4ccccc4nc4cc(N)ccc34)c3ccccc3nc2c1, the T/C (dose: 0.63 mg/kg/injection, schedule: Q01DX009 (ip), vehicle: other) is reported as 122 % of control.
In the case of CC(=O)OCC1=CC2OC(=O)C3=COC(OC4OC(CO)C(O)C(O)C4O)C1C32 (stereo not drawn), the T/C [7] is reported as 93 % of control, the T/C [17] is reported as 88 % of control and the T/C [8] is reported as 98 % of control. The T/C [1] was 88 % of control, the T/C [9] was 98 % of control and the T/C (dose: 50.0 mg/kg/injection, schedule: Q04DX002 (ip), vehicle: saline) was 107 % of control. The T/C [2] was 89 % of control, the T/C (dose: 100.0 mg/kg/injection, schedule: Q04DX002 (ip), vehicle: saline) was 101 % of control and the T/C (dose: 200.0 mg/kg/injection, schedule: Q04DX002 (ip), vehicle: saline) was 99 % of control.
In the case of COc1cc2c(cc1OC)-c1ccc(OC)c(=O)cc1CC(NC(=O)C(C)=O)C2 (stereo not drawn), the T/C (dose: 0.63 mg/kg/injection, schedule: Q01DX009 (ip), vehicle: Klucel (hydroxypropylcellulose) (HPC)) is reported as 153 % of control, the T/C (dose: 1.25 mg/kg/injection, schedule: Q01DX009 (ip), vehicle: Klucel (hydroxypropylcellulose) (HPC)) is reported as 105 % of control and the T/C (dose: 78.0 micrograms/kg/injection, schedule: Q01DX009 (ip), vehicle: Klucel (hydroxypropylcellulose) (HPC)) is reported as 120 % of control. For the same compound, the T/C (dose: 625.0 micrograms/kg/injection, schedule: Q01DX009 (ip), vehicle: Klucel (hydroxypropylcellulose) (HPC)) was 151 % of control.
For CCOC(=O)NCCCCCCNC(=O)OCC, the T/C [12] was 99 % of control and 90 % of control, the T/C [13] was 90 % of control and 95 % of control and the T/C [14] was 93 % of control and 98 % of control.
For C=C(C)c1nc(N)nc(NCc2ccccc2)n1, the T/C [12] was 100 % of control, the T/C [13] was 102 % of control and the T/C [14] was 109 % of control.

Source: PubChem BioAssay AID330 (DTP/NCI, 2004)
